Like-named read-outs stand apart in the source and are kept apart here.
Legend:
coronary strips = conditions: vasodilation; cited from earlier work
Rhesus monkeys = conditions: cited from earlier work
[1] = cited from earlier work
[2] = in vivo
Procedure: It is necessary to combine both the oral dose and the pharmacokinetics data to estimate the target flux of ketorolac. For an oral dosage regimen of ketorolac tromethamine, it is recommended that 10 mg be given every 6 hours as needed for short-term management of moderate to severe pain.

rats = conditions: rat, not told; cited from earlier work
[3] = cited from earlier work; for Solubilities: saturated
[4] = cited from earlier work; remark: listed apart in the source
[5] = tested on: patients with coronary heart disease; conditions: single oral dose of 2 mg; cited from earlier work
[6] = oral doses; cited from earlier work
[7] = in vitro skin flux of ketorolac; conditions: Table 5
Procedure: Generally, the protocol was as follows.
Human cadaver epidermis was removed carefully from dermatoned full thickness skin after the skin had been heated in deionized water at 60° C. for one to two minutes. The stripped epidermis was placed between two polyethylene plastic sheets and refrigerated at -20° C. until use. Discs of the epidermis having a diameter of 5/8" were punched out with a die and tested for leakage by soaking the epidermis in water, then spreading it flat on a plastic sheet, and pressing the top of the epidermis lightly a few times with a piece of laboratory tissue. Leakage of the epidermis was detected by appearance of wet spots on the tissue.
Epidermis discs proving to be free of leaks were placed on top of a receiver cell of a modified Franz vertical diffusion cell assembly, and a donor cell was placed on top of the receiver cell. A small magnetic stir bar was inserted through the sampling port into the donor cell compartment. The diffusion cell assemblies were clamped together and transferred to a skin permeation room (controlled at 32° C.) The receiver cell compartments were filled with 8.0 ml of isotonic phosphate buffer, pH 7.0. […]
The quantity of ketorolac tromethamine in each sample was assayed by HPLC analytical methods.

[8] = cited from earlier work; remark: listed apart in the source
[9] = administered orally; cited from earlier work
[10] = cited from earlier work; remark: listed apart in the source
[11] = cited from earlier work; remark: listed apart in the source

**Q.** With N#CCN(N=O)N1CCOCC1 [SIN-1A] as the compound, how does the “dependence of activity on cysteine” value (coronary strips) read?
**A.** Its value is “active in both the presence and the absence of cysteine”.

**Q.** With O=[N+]([O-])OCC(CO[N+](=O)[O-])O[N+](=O)[O-] [nitroglycerin] as the compound, how does the “dependence of activity on cysteine” value (coronary strips) read?
**A.** The value was “depends on the presence of cysteine”.

**Q.** Which results are given for O=C(c1ccccc1)c1ccc2n1CCC2C(=O)O (centres unmarked) [Ketorolac]?
**A.** time to high Cmax (Rhesus monkeys; percutaneous, solution formulations): ≤ 8 h; enhancement of percutaneous absorption by propylene glycol and linoleic acid, or propylene glycol and oleic acid (Rhesus monkeys; solution formulations): effective; total clearance ([1]; in vivo): 1750 ml/hr/70 kg; plasma concentration at 6 hour ([1]; oral administration of 10 mg, 6 hour): 200 to 300 ng/mL; Cmax ([1]; oral administration of 10 mg): about 0.8 μg/ml; amount to be delivered during a 24 hour period [2]: 12.5 to 19.2 mg

**Q.** With CCOC(=O)[N-]c1cn(N2CCOCC2)n[o+]1 [Molsidomine, N-5-ethoxycarbonyl-3-morpholinosydnonimine] as the compound, how does the estimated flux (rats) read?
**A.** Its estimated flux is ~399 μg/hr-cm^2.

**Q.** What about the solubility ([3]; CHCl3) of the same compound?
**A.** The solubility was “freely soluble”.

**Q.** What about the Solubilities ([3]; Glycerin, 25° C.) of the same compound?
**A.** Its Solubilities is 1.80%.

**Q.** And the Solubilities ([3]; Glycol salicylate, 25° C.)?
**A.** Its Solubilities is 15.1%.

**Q.** What about the Solubilities ([3]; Isopropyl myristate, 25° C.) of the same compound?
**A.** Its Solubilities is 0.09%.

**Q.** What about the Solubilities ([3]; Octyl.decyl oil, 25° C.) of the same compound?
**A.** Its Solubilities is 0.36%.

**Q.** What about the Solubilities ([3]; Oleic Acid, 25° C.) of the same compound?
**A.** Its Solubilities is 1.37%.

**Q.** And the Solubilities ([3]; PEG 400, 25° C.)?
**A.** Its Solubilities is 5.23%.

**Q.** What about the Solubilities ([3]; Propylene glycol, 25° C.) of the same compound?
**A.** Its Solubilities is 6.37%.

**Q.** And the solubility ([3]; dilute HCl, ethanol, ethyl acetate, methanol)?
**A.** The solubility was “soluble”.

**Q.** What about the solubility ([3]; ether, petroleum ether) of the same compound?
**A.** Its solubility is “very slightly soluble”.

**Q.** And the solubility ([3]; propylene glycol and a variety of organic solvents)?
**A.** Its solubility is “soluble”.

**Q.** And the solubility ([3]; water, acetone, benzene)?
**A.** The solubility was “sparingly soluble”.

**Q.** What about the pKa ([4]; 25° C.) of the same compound?
**A.** Its pKa is 3.34.

**Q.** What about the t90 ([4]; pH 5-7, 20° C.) of the same compound?
**A.** Its t90 is 2.6 years.

**Q.** And the “duration of anti-anginal effects” value [5]?
**A.** Its value is 3 to 5 h.

**Q.** And the bioavailability [6]?
**A.** Its bioavailability is 44%.

**Q.** Which “Effect on skin flux (factorial design)” value [7] does the source give for CC(O)CO (centres unmarked) [PG, propylene glycol] here?
**A.** Its value is 8.72.

**Q.** With O=C(c1ccccc1)c1ccc2n1CCC2C(=O)O (centres unmarked) [Ketorolac tromethamine] as the compound, how does the “estimated in vivo skin flux” value (Rhesus monkeys; rhesus monkey) read?
**A.** The value was “very high”.

**Q.** And the Solubilities ([8]; PG (50%), Oleic acid (50%))?
**A.** Its Solubilities is 110 mg/mL.

**Q.** What about the Solubilities ([8]; propylene glycol (PG)) of the same compound?
**A.** Its Solubilities is 200 mg/mL.

**Q.** And the Solubilities ([8]; water)?
**A.** Its Solubilities is 725 mg/mL.

**Q.** What about the volume of distribution ([1]; in vivo) of the same compound?
**A.** Its volume of distribution is 7.7 lit/70 kg.

**Q.** What about the oral bioavailability ([1]; oral) of the same compound?
**A.** Its oral bioavailability is 80-100%.

**Q.** And the “anti-inflammatory potency relative to indomethacin or naproxen” value [9]?
**A.** The value was 2-3 times.

**Q.** What about the “analgesic potency relative to aspirin” value ([10]; administered orally) of the same compound?
**A.** Its value is “about 180 times”.

**Q.** And the “analgesic potency relative to indomethacin” value ([10]; administered orally)?
**A.** Its value is 3-6 times.

**Q.** And the “analgesic potency relative to naproxen” value ([10]; administered orally)?
**A.** The value was 25-50 times.

**Q.** What about the shelf-life ([11]; aqueous solutions pH 4-8, 25° C.) of the same compound?
**A.** Its shelf-life is “very long shelf-life”.

**Q.** And the “aqueous solubility relative to ketorolac” value [11]?
**A.** Its value is “greater aqueous solubility than ketorolac”.

**Q.** And the light sensitivity ([11]; decarboxylation, especially in the presence of oxygen)?
**A.** Its light sensitivity is “light sensitive”.

**Q.** What about the “stability in aqueous solutions” value ([11]; pH 4-8) of the same compound?
**A.** The value was “extremely stable”.

**Q.** With O=C(c1ccccc1)c1ccc2n1CC[C@@H]2C(=O)O [(-)-S isomer] as the compound, how does the “analgesic potency relative to (+)-R isomer” value ([10]; A. Guzman et al., 1986) read?
**A.** Its value is “many times greater analgesic potency”.
